Entries after “also recorded” stand apart in the source; their conditions may differ. Read-outs that look alike come from different tables or passages of the source. Non-standard residues stand in square brackets, D forms with d. No end group written: not given here.
Columns and labels:
[1] = biological target: T1, human GLP-1R (21-139aa region) (Homo sapiens, UniProt P43220); test: Surface Plasmon Resonance (SPR) binding at hGLP-1R; conditions: for binding at hGLP-1R: Ex-4 positive and ODN negative control
T1 construct: human GLP-1R (21-139aa region); purchased rndsystems.com (R&D Systems) 10956-GL
Protocol: SU75-36, SU75-37, Ex-4, and ODN binding at the human GLP-1R (21-139aa region; available on the world wide web at rndsystems.com cat #10956-GL) was measured via a Nicoya Open SPR instrument using His-tagged hGLP-1R bound to an NTA-coated gold sensor (Nicoya cat #SEN-AU-100-10-NTA) using HBSS (in-house) at 20 μL/min flow rate. Data was fit via a global, one-to-one model using Nicoya OpenSPR software. In-house Ex-4 and ODN were used as the positive and negative controls, respectively.

[2] = assay type: in vivo, rat; conditions: for food intake compared to control: SU75-36 20 or 200 μg, SU75-37 20 μg, 1, 3, 6, 24 h; for body weight change after 24 hours: any dosage, rats fed chow or HFD; for kaolin intake (pica, model of malaise and nausea): rat, in vivo
Protocol: Adult male Sprague-Dawley rats (Charles River) were individually housed under a 12 h-light: 12 h-dark cycle in a temperature and humidity-controlled satellite vivarium and had ad libitum access to water and chow (5001, LabDiet) or a 60% high fat diet (HFD): D12492, Research Diets) and when applicable had ad libitum access to kaolin pellets (K50001, Research Diets). Rats were exposed to kaolin for at least 5 days prior to measuring kaolin consumption in pica testing. Except for studies conducted in the bioDAQ, for all feeding studies rats were housed in hanging wire cages to allow for accurate measurement of food spillage. Experiments were conducted under the National Institutes for Health Guide for the Care and Use of Laboratory Animals and all procedures were approved by the Institutional Animal Care and Use Committee at the University of Pennsylvania.
For cannula implantation, rats were anesthetized by intraperitoneal injection of a mixture containing ketamine (90 mg/kg, Butler Animal Health Supply), xylazine (2.7 mg/kg, Anased), and acepromazine (0.64 mg/kg, Butler Animal Health Supply) (KAX) and then placed into a stereotaxic apparatus. Each rat was stereotaxically implanted with a guide cannula (26-ga, Plastics One) aimed at the fourth ventricle (guide cannula coordinates: on midline. 2.5 mm anterior to occipital suture, 5.2 mm ventral to skull; internal cannula aimed 7.2 mm ventral to skull) or the lateral ventricle (guide cannula coordinates: 1.5 mm lateral to midline, 0.9 mm posterior to bregma. 1.8 mm ventral to skull; internal cannula aimed 3.8 mm ventral to skull). For all cannulas, dummies (no projection beyond guide) were inserted in the guide cannula and left until infusions were performed. For all surgeries, rats received post-operative temperature support and analgesia was provided immediately following surgery and for two post-operative days (2 mg/kg meloxicam).
For all studies measuring food intake following drug treatment, central injections were given at a volume of 2 μL using a Hamilton syringe terminating in an injector tip extending 2.0 mm beyond the guide cannula. For acute treatment days, rats were food deprived for 2 hours before the dark cycle and injections were done immediately prior to the dark cycle onset. Food and kaolin intake was measured 1, 3, 6, and 24 hours after injections were completed and food crumbs were weighed and accounted for between each timepoint. Body weight was measured during injections and 24 hours after. Injection treatments were organized in a counterbalanced, within-subjects design and separated by ≥72 h.
In a separate experiment, chow maintained (n=10) and diet-induced obese (DIO) rats (n=12) were administered 20 μg SU75-36, 200 μg SU75-36, or 20 μg SU75-37 by intracerebroventricular injection to the lateral ventricle and observed over 24 hours. One group of rats was administered a vehicle without a GPR75 inhibitor as a negative control. All rats were given ad libitum access to access to water, kaolin pellets to assess pica behavior, and food, either a standard chow diet or a 60% high fat diet (HFD). The food intake of chow (FIG. 8A) or HFD (FIG. 8B), and kaolin take of chow-maintained rats (FIG. 8C) and HFD-maintained rats (FIG. 8D) of each rat was observed 1, 3, 6, and 24 hours after administration of the GPR75 inhibitor.
Rats were weighed at the beginning of the experiment and 24 hours after administration of the GPR75 inhibitor. The weight change of each rat after 24 hours was then calculated. […] (FIGS. 8E, 8F).

[3] = Lateral intraventricular injection in HEPES buffer, food intake and body weight in DIO rats; assay type: in vivo, rat; conditions: lateral ventricle; for food intake compared to control: 60% HFD, 1, 3, 6, 24 h
Protocol: Diet induced obese (DIO) rats (n=4) were administered 150 μg/3 μL SU75-36 in a vehicle or in a HEPES buffer by lateral intraventricular injection and observed over 24 hours. One group of rats was administered a Vehicle of 50% DMSO in HEPES as a negative control. All rats were given ad libitum access to water and 60% HFD. […] (FIG. 10A). […] Rats were weighed at the beginning of the experiment and 24 hours after administration. The weight change of each rat after 24 hours was then calculated. […] (FIG. 10B). In a separate experiment, diet induced obese (DIO) rats (n=4) were administered 133 μg/2 μL SU75-37 in a HEPES buffer by lateral intraventricular injection and observed over 24 hours. One group of rats was administered a vehicle without a GPR75 inhibitor as a negative control. All rats were given ad libitum access to water and a 60% high fat diet (HFD). SU75-37 was optimized using an acetate salt precipitation rather than a TFA salt precipitation to maintain a neutral >4.5 pH in HEPES buffer solution. The food intake of each rat was observed 1, 3, 6, and 24 hours after administration. […] Rats were weighed at the beginning of the experiment and 24 hours after administration. The weight change of each rat after 24 hours was then calculated. […] (FIG. 11B).

[4] = Peripheral (IP) administration, food intake and body weight in DIO mice; assay type: in vivo, mouse; conditions: for 24 h food intake: IP 0.5 and 5 mg/kg, male HFD fed mice (FIG. 12 legend)
Protocol: DIO mice were administered 0.5 mg/kg or 5.0 mg/kg of either SU75-36 or SU75-37 in a vehicle by […] injection and observed over 24 hours. One group of mice was administered a vehicle as a negative control. All mice were given ad libitum access to water and a 60% HFD. […] (FIGS. 12A and 12C). […] Mice were weighed at the beginning of the experiment and 24 hours after administration. The weight change of each mouse after 24 hours was then calculated. […] (FIGS. 12B and 12D) This experiment was then repeated for SU75-37 at a higher dose (10 mg/kg). […] (FIG. 13A).

[5] = Circular dichroism (CD) spectroscopy, secondary structure; conditions: 40 μM in 0.5% saline
[6] = lateral ventricle, chow and HFD rats
[7] = 5 mg/kg peripheral injection, DIO mice, 60% HFD, 3 and 24 h

Substance | binding at hGLP-1R [1] | food intake compared to control [2, 6] | body weight change after 24 hours ([2]; lateral ventricle) | kaolin intake (pica, model of malaise and nausea) [2] | food intake compared to control [4, 7] | 24 h food intake [4] | secondary structure (folded state) from CD spectra [5] | other results
TFTSDLSKYLEEEVREFIWLKNGGPSDVNTDRPGLLDLK-NH2 [SU75-37] | did not bind; also recorded: does not bind | significant decrease in food intake | significant decrease in weight | absence of kaolin intake | significant decrease in food intake | suppresses | typical α-helix | food intake compared to control ([3]; 133 μg/2 μL in HEPES buffer, acetate salt precipitation, DIO rats): significant decrease in food intake; body weight change after 24 hours ([3]; 133 μg/2 μL in HEPES buffer, DIO rats): significant decrease in weight; 24 h food intake ([3]; 150 μg/3 μL in HEPES buffer, male HFD fed rats (FIG. 11 legend)): suppresses; body weight change after 24 hours ([4]; IP 10 mg/kg, HFD fed mice): significant decrease in weight; food intake compared to control ([4]; IP 10 mg/kg, HFD fed mice, 10 mg/kg): significant decrease in food intake; food intake compared to control ([4]; IP 10 mg/kg, HFD fed mice, listed as 37, 10 mg/kg): suppresses
H[dS]QGTFTSDLSKYLEEEVREFIWLKNGGPSDVNTDRPGLLDLK-NH2 [SU75-36] | poor binding | significant decrease in food intake | significant decrease in weight | absence of kaolin intake | significant decrease in food intake | suppresses | typical α-helix | Kd ([1]; His-tagged hGLP-1R on NTA sensor, HBSS): 182 µM; food intake compared to any of the other groups ([2]; lateral ventricle, 200 μg, chow and HFD rats): further decrease; food intake compared to any of the other groups ([3]; 150 μg/3 μL in HEPES buffer, DIO rats): further decrease; food intake compared to control ([3]; 150 μg/3 μL in vehicle (50% DMSO in HEPES) or HEPES buffer, DIO rats): significant decrease in food intake; food intake compared to control ([3]; 150 μg/3 μL in vehicle (50% DMSO in HEPES) or HEPES buffer, DIO rats, listed as 36): suppresses; body weight change after 24 hours compared to any other of the groups ([3]; 150 μg/3 μL with HEPES buffer, DIO rats): further decrease; body weight change after 24 hours ([3]; 150 μg/3 μL, DIO rats): significant decrease in weight; body weight change after 24 hours ([4]; 0.5 or 5.0 mg/kg peripheral injection, DIO mice): significant decrease in weight

Source: patent US20260055141A1, “COMPOSITIONS AND METHODS FOR CONTROLLING FOOD INTAKE, ENERGY EXPENDITURE, AND BODY WEIGHT FOR THE TREATMENT OF OBESITY AND METABOLIC DISEASES” (The Trustees of the University of Pennsylvania, priority 2022, published 2026)
